The nature of the data set: Human HepG2 cell viability assay in 384 well format. The arrangement: dose 125 nL, time 70.5 hour; concentration not given beside the values. To be noted: HepG2 cells, read-out: Inhibition. Type of data set: toxicity, cell-based.

Here are results for 95 molecules from ChEMBL document CHEMBL3507680, “University of Dundee, Gates Library screen for HepG2 cell viability”.

The structures appear in SMILES notation.

`O=C(NCC(O)c1ccccc1)Nc1cccs1` (stereo not given): the cytotoxicity at 70.5 h came out at 18.8%.
The figure for `COc1cccc(CN2CC[C@H](c3nnc(-c4ccco4)o3)C2)c1` is 10.6%; for `CC(C)(C)c1c[nH]c([C@@H]2COCCN2C2CCOCC2)n1` it is 12.2%.
For the molecule `COc1ccc(CN2CCOC[C@H]2c2nc(-c3ccncc3)c[nH]2)cc1`, the cytotoxicity at 70.5 h was -1.1%.
The figure for `CC(=O)N1CCN(C(=O)C[C@@H]2C[C@@H](C(C)C)[C@H](CC#N)C=C2C)CC1` is 0.119%; for `COc1ccc(-c2cc(CC3(NCc4ccc(C)o4)COC3)no2)cc1` it is 6.13%.
With `Cn1ccnc1CN1C(=O)CO[C@H]2CN(Cc3ccc(F)c(F)c3)C[C@H]21`, the cytotoxicity at 70.5 h came out at 8.11%.
The figure for `O=C(c1cc(CC2(NCc3ccccc3)COC2)no1)N1CCCCC1` is -5.63%.
With `CCCn1cnc2c1CN(S(=O)(=O)Cc1ccccc1)[C@H](C(=O)OC)C2` the figure was 0.651%; with `c1ccc(CCCN2CC[C@H](c3nnc(-c4cccnc4)o3)C2)cc1`, -10.6%.
For the molecule `CS(=O)(=O)N1C[C@@H](F)[C@@H](OCc2nc3ccccc3o2)C1`, the cytotoxicity at 70.5 h came out at 14.3%.
On to `F[C@@H]1CN(Cc2ccccc2)C[C@@H]1OCc1nc2ccccc2[nH]1`, for which the cytotoxicity at 70.5 h was 0.621%.
`F[C@@H]1CN(CC2CC2)C[C@@H]1OCc1nc2ccc(C(F)(F)F)cc2[nH]1`: the cytotoxicity at 70.5 h came to 0.533%.
The figure for `O=C(C1CC1)N1C[C@@H](F)[C@@H](OCc2nc3cc(F)ccc3[nH]2)C1` is -3.11%; for `CC(=O)N1C[C@@H](F)[C@@H](OCc2nc3cc(C)c(C)cc3[nH]2)C1` it is -0.883%; for `COC(=O)c1cccc2nc([C@H]3CCN(C4CCN(C)CC4)C3)oc12` it is -2.72%.
On to `CC(=O)N1CCC(N2CC[C@H](c3nc4cc(C)ccc4o3)C2)CC1`, for which the cytotoxicity at 70.5 h is -1.07%.
As to `COC(=O)[C@@H]1Cc2ncn(C(C)C)c2CN1S(=O)(=O)Cc1ccccc1`, the cytotoxicity at 70.5 h is -6.37%.
Turning to `COCCOc1ccnc(-c2noc([C@@H]3CCCN3C)n2)c1`, the cytotoxicity at 70.5 h is -3.64%.
With `COCc1cc(CC2(NC3CCN(C)CC3)COC2)no1` the figure was 6.14%; with `CC(C)CN1C[C@@H]2OCC(=O)N(Cc3nccn3C)[C@@H]2C1`, 14%.
With `Cc1ccc(-c2c[nH]c([C@@H]3COCCN3Cc3ncc[nH]3)n2)cc1` the figure was 6.46%; with `Cc1ccc(-c2c[nH]c([C@@H]3COCCN3Cc3cccnc3)n2)cc1`, 14.4%; with `COCCN1C(=O)CO[C@H]2CN(S(=O)(=O)c3ccccc3)C[C@H]21`, -12.7%.
With `COCC(=O)Nc1ccc(-c2noc([C@@H]3CCCN3)n2)cn1`, the cytotoxicity at 70.5 h was -0.348%.
The figure for `CC(C)(C)CN1CCC[C@H]1c1nc(-c2cncnc2N)no1` is -0.753%; for `Cc1cccc(O[C@H]2COCCN(C3CCC3)C2)n1` it is -6.06%.
With `CC1(C)[C@H](Cc2cc(CO)on2)C[C@@H]1NCc1ccc(CO)o1` the figure was 14.7%.
With `CC(=O)N1CCC(NC2(Cc3cc(CC(C)C)on3)COC2)CC1` the figure was 3.96%; with `Cc1cccc(O[C@H]2COCCN(C3CCOCC3)C2)n1`, -9.61%.
`O=C(NC[C@H]1OC[C@@H](NCc2ccccc2)[C@@H]1O)Nc1ccc(F)cc1`: the cytotoxicity at 70.5 h was -4.13%.
With `O=C(NC[C@H]1O[C@H](Cc2cc(-c3ccccn3)on2)CC[C@@H]1O)C1CC1` the figure was -7.04%; with `CC(C)NC(=O)N1CCN2C(=O)N(Cc3ccc(F)cc3)C[C@H]2C1`, -4.66%.
With `O=C(NC[C@H]1OC[C@@H](NC2COC2)[C@@H]1O)c1ccccc1` the figure was -6.48%; with `O=C(NC[C@H]1OC[C@@H](NCc2ccccn2)[C@@H]1O)c1ccncc1`, -1.84%; with `CC(C)NC(=O)NC[C@H]1OC[C@@H](NCc2ccncc2)[C@@H]1O`, -3.41%.
Regarding `COc1cc(C)c2c(c1C)C[C@H]([C@H](C)C(=O)O)CC2`, the cytotoxicity at 70.5 h is -3.45%.
Consider `O=C1N[C@@H]2CCN(C(=O)C3CCC3)[C@@H]2C(=O)N1c1ccc(F)cc1`, for which the cytotoxicity at 70.5 h was determined as 21.8%.
With `O=C(c1cc(CC2(NCC3CCCCC3)COC2)no1)N1CCCCC1` the figure was -6.68%; with `CN(C)Cc1cc(CC2(NCc3ccccc3Cl)COC2)no1`, -2.7%.
Consider `CN1CCOC[C@H]1c1nc(-c2ccccc2)c[nH]1`, for which the cytotoxicity at 70.5 h is -9.46%.
The figure for `O=C(NC[C@H]1OC[C@@H](NC(=O)c2ccccc2)[C@@H]1O)c1ccncc1` is -0.603%; for `COC(=O)[C@H]1CN(C(C)=O)CCN1C(C)=O` it is -2.71%; for `CC(=O)N1CC[C@H]2CC(=O)N(CCc3c[nH]cn3)CC[C@H]2C1` it is -2.6%.
The figure for `CCNC(=O)N1CC[C@H]2CC(=O)N(CC(N)=O)CC[C@H]2C1` is -1.17%; for `COCCOc1ncccc1-c1noc([C@@H]2CCCN2C2CCC2)n1` it is -10.3%.
The figure for `COC(=O)c1cccc2nc([C@H]3CCN(Cc4ccccc4F)C3)oc12` is -6.68%; for `O=C([C@@H]1Cc2[nH]cnc2CN1Cc1cc2ccccc2o1)N1CCCC1` it is 8.38%.
As to `O[C@@H]1C[C@@H](c2nc(-c3ccccc3)no2)N(C2CCOCC2)C1`, the cytotoxicity at 70.5 h was -3.47%.
The figure for `O=C(NC[C@H]1C[C@@H]2CCN1C[C@@H]2CN1CCOCC1)Nc1ccccc1` is -2.16%; for `O=C(NC[C@H]1OC[C@@H](NC2COC2)[C@@H]1O)c1cccs1` it is -15.7%; for `Cc1cccc(O[C@H]2COCCN(Cc3sc(C)nc3C)C2)n1` it is 10.9%.
As to `COCC(=O)N[C@H](C)c1onc(-c2ccc(F)cc2)c1C(=O)O`, the cytotoxicity at 70.5 h was -6.83%.
The figure for `C[C@@H](NC(=O)c1cccn1C)c1c(-c2ccc(Cl)cc2)noc1C(=O)O` is -7.66%.
Consider `c1ccc(CNC[C@H]2Cn3ccnc3CO2)cc1`, for which the cytotoxicity at 70.5 h worked out at 4.33%.
The figure for `CCC(=O)NCc1cc(C2CC2)n(C2CCCC2)n1` is 13.9%; for `O=C(CN1C(=O)CCC1=O)N1CCC(S(=O)(=O)Cc2ccco2)CC1` it is -3.03%.
The figure for `Cn1cnnc1S(=O)(=O)C1CCN(C(=O)c2cccs2)CC1` is -10.5%; for `Cn1cnnc1S(=O)(=O)C1CCN(C(=O)c2ccsc2)CC1` it is -9.56%; for `Cc1ccc(S(=O)(=O)N2CCC(S(=O)(=O)c3nncn3C)CC2)cc1C` it is -6.93%.
As for `CNC(=O)CS(=O)(=O)C1CCN(S(=O)(=O)c2cccc(Cl)c2C)CC1`, the cytotoxicity at 70.5 h is -9.92%.
Take `CC(=O)Nc1ccc(CC(=O)N2CC(S(=O)(=O)C3CCCCC3)C2)cc1`: the cytotoxicity at 70.5 h is -3.63%.
The figure for `COC1CCN(c2ccc(NC(=O)Cn3cccn3)cc2)CC1` is -8%.
For `COC1CCN(c2ccc(NC(=O)Cn3cccc3)cc2)CC1`, the cytotoxicity at 70.5 h is -11%.
`O=C(Cc1ccccc1Cl)Nc1cnn(C2CCOC2)c1` (stereo not given): the cytotoxicity at 70.5 h was -14%.
The figure for `O=C(Nc1cnn(C2CCOCC2)c1)c1ccc2c(c1)OCO2` is -16%.
Turning to `O=C(Cc1cccs1)Nc1cnn(C2CCOCC2)c1`, the cytotoxicity at 70.5 h is -12.8%.
With `O=S(=O)(Nc1cnn(C2CCOCC2)c1)c1ccc(Br)cc1` the figure was -5.21%; with `COC(C)(CNS(=O)(=O)c1cn(C)cn1)c1ccccc1F` (stereo not given), 9.94%.
With `CCC(CNC(=O)C1CCC1)(OC)c1ccccc1` (stereo not given) the figure was -1.73%; with `CCNC(=O)NCC(CC)(OC)c1ccccc1` (stereo not given), -5.55%; with `O=C(NC1CC1)C1CCCN(c2cc(-n3cncn3)ncn2)C1` (stereo not given), 13.5%.
For the molecule `O=C(CSC1CCCC1)N1CCN(c2ccc(-n3cncn3)nn2)CC1`, the cytotoxicity at 70.5 h was -2.51%.
Take `COC(=O)c1cc(OC)c(OC)cc1N(C)S(C)(=O)=O`: the cytotoxicity at 70.5 h amounted to 41.7%.
Regarding `OCc1cnc(Nc2ccccc2)nc1`, the cytotoxicity at 70.5 h is 10.1%.
As for `COC(=O)C1CCCN1Cc1ccco1` (stereo not given), the cytotoxicity at 70.5 h was -8.41%.
As to `CNCc1ccc(Oc2cncc(C)n2)cc1`, the cytotoxicity at 70.5 h was -12.9%.
As to `N#Cc1ccccc1Cn1cncn1`, the cytotoxicity at 70.5 h stood at 9.79%.
With `c1coc(CN2CCC3(CC2)CC(N2CCCC2)CO3)c1` (stereo not given) the figure was 33.2%; with `Cc1cc(C(=O)N[C@H]2CC[C@@]3(CCC(=O)N3C)CC2)no1`, -9.34%; with `Cc1ccsc1C(=O)N1CC2CC1(C(=O)NCc1ccco1)C2`, 13.9%.
With `Cc1ccsc1C(=O)N1CC2CC1(C(=O)NCC1CC1)C2` the figure was -16.8%; with `CN(C)C(=O)N1CCC2(CCC(C(=O)N3CCCC3)O2)CC1` (stereo not given), -16.3%.
With `CC(=O)N1CCC2(CC1)CN(C(C)=O)CC21CCNC1=O` (stereo not given) the figure was 16.2%; with `CCN1C(=O)CCC12CCN(S(=O)(=O)c1ccccc1)CC2`, -4.14%.
With `O=C1Nc2ccccc2C1C1CCN(C(=O)C2CC2)CC1` (stereo not given), the cytotoxicity at 70.5 h was -6.49%.
The figure for `COc1ccc(CN2C[C@@H]3CN(S(=O)(=O)C4CC4)C[C@@H]3C2=O)cc1` is -9.53%; for `O=C(C1CCCCC1)N1CC2(CCNCC2)C1` it is 1.58%.
In the case of `CCOC1COC2(CCN(Cc3ccco3)CC2)C1` (stereo not given), the cytotoxicity at 70.5 h was 18.2%.
With `CC(C)NC(=O)N1CCC2(CC1)C(=O)NCCN2Cc1ccccc1` the figure was -7.72%; with `CC(C)C1COC2(CCN(Cc3ccco3)CC2)C1` (stereo not given), -7.19%.
With `CC(=O)N1C[C@H]2CCCN(Cc3ccc(C)o3)[C@H]2C1`, the cytotoxicity at 70.5 h was -10.5%.
The figure for `CCN1CCN(C)C2(CCN(Cc3cccc(C)n3)CC2)C1=O` is -9.88%.
Regarding `Cc1ccc(CN2CCC3(CC2)C(=O)N(CCO)CCN3C)o1`, the cytotoxicity at 70.5 h is -3.64%.
With `COc1ccc(CN2C[C@@H]3CN(Cc4ccncc4)C[C@@H]3C2=O)cc1` the figure was -8.45%.
